US9617276B2, “Compounds and methods for treating AIDS and HIV infections” (priority 2009, dated 2017)
Read-outs that look alike come from different tables or passages of the source.

Key:
[1] = system: HIV-2EHO; assay: drug susceptibility, MT-2 cells, MTT assay, HIV-2EHO; format: cell-based
Description: All assays were performed in duplicate or triplicate. […] All assays were performed in duplicate or triplicate.
Each selectivity index denotes a ratio of CC50 to EC50 against HIV-1LAI N.D., not done.

[2] = system: HIV-1NL4-3; assay: in vitro selection of PI-resistant HIV-1 variants in MT-4 cells; format: cell-based; settings: HIV-1NL4-3 in MT-4 cells, increasing drug concentrations
Excerpt: The culture supernatants were harvested on day 7 and used to infect fresh MT-4 cells for the next round of culture in the presence of increasing concentrations of each drug.

[3] = biological target: T1, HIV-1 protease (Human immunodeficiency virus type 1 group M subtype B, UniProt P04585); assay: HIV protease enzyme inhibition, fluorometric assay of Toth and Marshall; format: biochemical; settings: Ki
T1 construct: A simple, continuous fluorometric assay for HIV protease
Description: (§1) The inhibitory potencies of acyclic and cyclic inhibitors were measured by the assay protocol of Toth and Marshall (Toth, M. V.; Marshall, G. R. A simple, continuous fluorometric assay for HIV protease. Int. J. Pep. Protien Res. 1990, 36, 544-55).

[4] = system: HIV-1; assay: antiviral assay (IC50); format: cell-based
Description: as §1

[5] = system: multidrug-resistant clinical HIV-1 isolates (HIV-1MDR); assay: microbe, parasite or virus in culture; format: cell-based
Description: The susceptibility of HIV-1LAI and primary HIV-1 isolates to various drugs were determined as described previously (Koh et al. 2003 Antimicrob Agents Chemother 47:3123-9). Briefly, MT-2 cells (2×10^4/ml) were exposed to 100 50% tissue culture infectious doses (TCID50S) of HIV-1LAI, in the presence or absence of various concentrations of drugs in 96-well microculture plates and were incubated at 37° C. for 7 days. After 100 μl of the medium was removed from each well, 3-(4,5-dimetylthiazol-2-yl)-2,5-diphenyltetrazolium bromide (MTT) solution (10 μl, 7.5 mg/ml in phosphate-buffered saline) was added to each well in the plate, followed by incubation at 37° C. for 3 h. […] All assays were performed in duplicate or triplicate. To determine the susceptibility of primary HIV-1 isolates to drugs, phytohemagglutinin-activated peripheral blood mononuclear cells (PHA-PBMCs; 106/ml) were exposed to 50 TCID50S of each. The target cells were exposed to HIV-1104pre or drug-resistant HIV-1 in the presence or absence of various concentrations of drugs and were incubated for 7 days. Upon the conclusion of the culture, the amounts of p24 Gag protein in the supernatants were determined using a fully automated chemiluminescent enzyme immunoassay system (Lumipulse F; Fujirebio Inc., Tokyo, Japan) (Maeda et al. 2001 J Biol Chem 276:35194-200). To determine the drug susceptibility of certain laboratory HIV-1 strains, MT-4 cells were used as target cells. In brief, MT-4 cells (10^5/ml) were exposed to 100 TCID50S of drug-resistant HIV-1 strains in the presence or absence of various concentrations of drugs and on day 7 of culture, the supernatant was harvested and the amounts of p24 Gag protein were determined. […] All assays were performed in duplicate or triplicate.
These clinical strains contained 9 to 14 amino acid substitutions in the protease-encoding region, which have reportedly been associated with HIV-1 resistance to various PIs.
Amino acid substitutions identified in the protease-encoding region compared to the consensus type B sequence cited from the Los Alamos database include L63P in HIV-1ERS104pre; L10I, K14R, L33I, M36I, M46I, F53I, K55R, I62V, L63P, A71V, G73S, V82A, L90M, and I93L in HIV-1MDR/B; L10I, I15V, K20R, L24I, M36I, M46L, I54V, I62V, L63P, K70Q, V82A, and L89M in HIV-1MDR/C; L10I, V11I, T12E, I15V, L19I, R41K, M46L, L63P, A71T, V82A, and L90M in HIV-1MDR/G; L10I, K14R, R41K, M46L, I54V, L63P, A71V, V82A, L90M, I93L in HIV-1MDR/TM; L10I, K43T, M46L, I54V, L63P, A71V, V82A, L90M, and Q92K in HIV-1MDR/MM; L10I, L24I, I33F, E35D, M36I, N37S, M46L, I54V, R57K, I62V, L63P, A71V, G73S, and V82A in HIV-1MDR/JSL. HIV-1ERS104pre served as a source of wild-type HIV-1. EC50s were determined by using PHA-PBMs as target cells, and inhibition of p24 Gag protein production by each drug was used as an end point. Numbers in parentheses represent n-fold changes of EC50s for each isolate compared to EC50s for wild-type HIV-1ERS104pre.

[6] = system: MT-2 cells; assay: cytotoxicity CC50; format: cell-based, Human; settings: MT-2 cells
[7] = Human immunodeficiency virus 2, MT2, MT-2 cells, MTT assay, mean ± 1 SD, read-out: EC50 (μM) for HIV-2EHO
[8] = Human immunodeficiency virus 2, MT2, read-out: EC50 (μM) for HIV-2EHO
[9] = Human immunodeficiency virus 1, Table 2, read-out: IC50
[10] = Human immunodeficiency virus 1, read-out: IC50

SMILES | EC50 [1, 7] | passage by which HIV-1 variants replicating in the presence of 1 μM drug emerged [2] | EC50 [1, 8] | IC50 [4, 9] | IC50 [4, 10] | further results
CC(C)CN(C[C@@H](O)[C@H](Cc1ccccc1)NC(=O)O[C@H]1CCOC1)S(=O)(=O)c1ccc(N)cc1 [APV, Amprenavir] | 0.12 ± 0.03 µM | 20 passages | – | – | – | –
COc1ccc2c(c1)OCCCC=CCCCCN(CC(O)C(Cc1ccccc1)NC(=O)OC1COC3OCCC13)S2(=O)=O (centres unmarked) [Compound 14b] | – | 37 passages | 0.018 ± 0.013 µM | < 10 nM | < 49 nM | Ki [3]: < 0.7 nM; Ki ([3]; Table 2): < 1 nM
COc1ccc2c(c1)OCCC=CCCCCN(CC(O)C(Cc1ccccc1)NC(=O)OC1COC3OCCC13)S2(=O)=O (centres unmarked) [Compound 14c] | – | – | 0.01 ± 0.007 µM | < 10 nM | 2 nM | IC50 ([4]; Human immunodeficiency virus 1, text b167): 2 nM
Cc1cccc(C)c1OCC(=O)N[C@@H](Cc1ccccc1)[C@@H](O)C[C@H](Cc1ccccc1)NC(=O)[C@H](C(C)C)N1CCCNC1=O [LPV, lopinavir] | 0.035 ± 0.025 µM | – | – | – | – | EC50 ([5]; Human immunodeficiency virus 1, read-out: EC50 with multidrug-resistant clinical HIV-1 isolates (mostly)): > 1000 nM
CCC[C@@]1(CCc2ccccc2)CC(O)=C([C@H](CC)c2cccc(NS(=O)(=O)c3ccc(C(F)(F)F)cn3)c2)C(=O)O1 [TPV, Tipranavir] | – | – | 0.3 ± 0.15 µM | – | – | CC50 [6]: 54100 ± 2100 nM; EC50 ([5]; Human immunodeficiency virus 1, read-out: greatest EC50 value against the clinical isolates): 380 nM
